Source: patent US10167262B2, “Herbicidal substituted 3-arylpyrazoles” (FMC CORPORATION, priority 2014, dated 2019)
Where two headings read alike, the source gives them in different places.

What was measured:
Format in all cases: in vivo
[1] = system: lambsquarters (Chenopodium album); assay: Test C pre-/postemergence greenhouse test, plant response rating 0-100; settings: Chenopodium album, pre-emergence, Preemergence
Procedure, shortened: (§1)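 Seeds were sown in a loam soil–sand blend and sprayed preemergence with test chemicals in a non-phytotoxic solvent mixture containing surfactant; postemergence plants in peat/vermiculite medium were treated at 2–18 cm (1- to 4-leaf stage). After 13 to 15 days in the greenhouse, injury was rated visually against untreated controls.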

[2] = system: johnsongrass (Sorghum halepense); assay: as above; settings: Sorghum halepense; for pest or weed control at 62 g/ha: 62 g ai/ha; for pest or weed control at 125 g/ha: 125 g ai/ha; for pest or weed control at 250 g/ha: 250 g ai/ha; for pest or weed control at 500 g/ha: 500 g ai/ha
Procedure, shortened: as §1

[3] = system: winter wheat (Triticum aestivum); assay: as above; settings: Triticum aestivum; for plant injury at 62 g/ha: 62 g ai/ha; for plant injury at 125 g/ha: 125 g ai/ha; for plant injury at 250 g/ha: 250 g ai/ha; for plant injury at 500 g/ha: 500 g ai/ha
Procedure, shortened: as §1

[4] = system: giant foxtail (Setaria faberii); assay: as above; settings: Setaria faberi; for pest or weed control at 62 g/ha: 62 g ai/ha; for pest or weed control at 125 g/ha: 125 g ai/ha; for pest or weed control at 250 g/ha: 250 g ai/ha; for pest or weed control at 500 g/ha: 500 g ai/ha
Procedure, shortened: as §1

[5] = system: velvetleaf (Abutilon theophrasti); assay: as above; settings: Abutilon theophrasti; for pest or weed control at 62 g/ha: 62 g ai/ha; for pest or weed control at 125 g/ha: 125 g ai/ha; for pest or weed control at 250 g/ha: 250 g ai/ha; for pest or weed control at 500 g/ha: 500 g ai/ha
Procedure, shortened: as §1

[6] = system: chickweed (common chickweed, Stellaria media); assay: Test C postemergence greenhouse test, plant response rating 0-100; settings: Stellaria media, post-emergence
Procedure, shortened: (§2)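 Postemergence spray of formulated test chemicals on plants 2 to 18 cm tall (1- to 4-leaf stage) grown in peat/vermiculite medium. Greenhouse hold 13 to 15 days, then visual comparison with untreated controls on a 0-100 scale (0 no effect, 100 complete control); dash means no test result.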

wild oat (Avena fatua) = assay: as above; settings: Avena fatua, post-emergence
Procedure, shortened: as §2

kochia (Kochia scoparia) = assay: as above; settings: Bassia scoparia, post-emergence
Procedure, shortened: as §2

[7] = post-emergence, Postemergence, read-out: Plant response rating (0 to 100), Johnsongrass
[8] = post-emergence, Postemergence, scale 0 to 100
[9] = pre-emergence, Preemergence, read-out: Plant response rating, Johnsongrass
[10] = post-emergence, Postemergence, read-out: Plant response rating (0 to 100), Wheat
[11] = pre-emergence, Preemergence, read-out: Plant response rating, Wheat
[12] = post-emergence, Postemergence, read-out: Plant response rating (0 to 100), Foxtail, Giant
[13] = pre-emergence, Preemergence, read-out: Plant response rating, Foxtail, Giant
[14] = post-emergence, Postemergence, read-out: Plant response rating (0 to 100), Velvetleaf
[15] = pre-emergence, Preemergence, read-out: Plant response rating, Velvetleaf

## COCC(=O)n1cc(C(=O)c2ccccc2)c(-c2cc(Cl)cc(Cl)c2)n1 [Compound 16, 1-[4-benzoyl-3-(3,5-dichlorophenyl)-1H-pyrazol-1-yl]-2-methoxyethanone]
[1]; 250 g ai/ha
  pest or weed control at 250 g/ha: 100%
[1]; 500 g ai/ha
  pest or weed control at 500 g/ha: 100%
[2]; [7]
  pest or weed control at 62 g/ha: 0%
  pest or weed control at 125 g/ha: 0%
[2]; [8]
  pest or weed control at 250 g/ha: 0%
  pest or weed control at 500 g/ha: 0%
[2]; [9]
  pest or weed control at 62 g/ha: 0%
  pest or weed control at 125 g/ha: 0%
[2]; pre-emergence, Preemergence
  pest or weed control at 250 g/ha: 0%
  pest or weed control at 500 g/ha: 0%
[3]; [10]
  plant injury at 62 g/ha: 0%
  plant injury at 125 g/ha: 0%
[3]; [8]
  plant injury at 250 g/ha: 0%
  plant injury at 500 g/ha: 0%
[3]; [11]
  plant injury at 62 g/ha: 0%
  plant injury at 125 g/ha: 0%
[3]; pre-emergence, Preemergence
  plant injury at 250 g/ha: 0%
  plant injury at 500 g/ha: 0%
[4]; [12]
  pest or weed control at 62 g/ha: 0%
  pest or weed control at 125 g/ha: 0%
[4]; [8]
  pest or weed control at 250 g/ha: 0%
  pest or weed control at 500 g/ha: 10%
[4]; [13]
  pest or weed control at 62 g/ha: 0%
  pest or weed control at 125 g/ha: 0%
[4]; pre-emergence, Preemergence
  pest or weed control at 250 g/ha: 0%
  pest or weed control at 500 g/ha: 0%
[5]; [14]
  pest or weed control at 62 g/ha: 85%
  pest or weed control at 125 g/ha: 90%
[5]; [8]
  pest or weed control at 250 g/ha: 90%
  pest or weed control at 500 g/ha: 90%
[5]; [15]
  pest or weed control at 62 g/ha: 65%
  pest or weed control at 125 g/ha: 100%
[5]; pre-emergence, Preemergence
  pest or weed control at 250 g/ha: 100%
  pest or weed control at 500 g/ha: 100%
[6]; 62 g ai/ha
  pest or weed control at 62 g/ha: 95%
[6]; 125 g ai/ha
  pest or weed control at 125 g/ha: 100%
[6]; 250 g ai/ha, scale 0 to 100
  pest or weed control at 250 g/ha: 100%
[6]; 500 g ai/ha, scale 0 to 100
  pest or weed control at 500 g/ha: 100%
Wild oat (Avena fatua); 62 g ai/ha
  pest or weed control at 62 g/ha: 0%
Wild oat (Avena fatua); 125 g ai/ha
  pest or weed control at 125 g/ha: 0%
Wild oat (Avena fatua); 250 g ai/ha, scale 0 to 100
  pest or weed control at 250 g/ha: 0%
Wild oat (Avena fatua); 500 g ai/ha, scale 0 to 100
  pest or weed control at 500 g/ha: 0%
Kochia (Kochia scoparia); 62 g ai/ha
  pest or weed control at 62 g/ha: 80%
Kochia (Kochia scoparia); 125 g ai/ha
  pest or weed control at 125 g/ha: 85%
Kochia (Kochia scoparia); 250 g ai/ha, scale 0 to 100
  pest or weed control at 250 g/ha: 90%
Kochia (Kochia scoparia); 500 g ai/ha, scale 0 to 100
  pest or weed control at 500 g/ha: 90%
